# Measured values reported in ChEMBL document CHEMBL5154877, “Novel Sphingosine Kinase 1 Inhibitor Suppresses Growth of Solid Tumor and Inhibits the Lung Metastasis of Triple-Negative Breast Cancer” (J Med Chem, 2022).
# The source made the active and inactive calls. The calls are words filed in the database; no cut-off is given here.
# Tests used:
# MDA-MB-231 [1] = experiment: Induction of apoptosis in human MDA-MB-231 cells assessed as necrotic cells at 30 uM incubated for 48 hrs by Annexin V-FITC/PI staining based flow cytometry (reference value: 1.42 %); assay type: functional
# [2] = Bioavailability in mouse at 50 mg/kg, ip; assay type: ADME, organism-based; details: in vivo
# [3] = Half life in mouse at 2 mg/kg, iv; assay type: ADME, organism-based; details: in vivo
# HT-29 [4] = experiment: Induction of cell cycle arrest at G0/G1 phase in human HT-29 cells assessed as reduction in cyclinD1 expression at 10 to 30 uM incubated for 24 hrs by Western blot analysis; assay type: functional, cell-based; details: dose 10-30 µM
# MDA-MB-231 [5] = experiment: Antimigratory activity against human MDA-MB-231 cells assessed as inhibition of cell migration in human MDA-MB-231 cells at 20 uM incubated for 15 hrs by wound healing assay; assay type: functional, cell-based
# MDA-MB-231 [6] = experiment: Induction of apoptosis in human MDA-MB-231 cells assessed as viable cells at 30 uM incubated for 48 hrs by Annexin V-FITC/PI staining based flow cytometry (reference value: 94.3 %); assay type: functional; details: read-out: Activity
# HT-29 [7] = experiment: Induction of apoptosis in human HT-29 cells assessed as increase in caspase 8 cleavage at 30 uM measured after 48 hrs by western blot analysis; assay type: functional, cell-based
# [8] = Oral bioavailability in mouse at 50 mg/kg; assay type: ADME, organism-based; details: in vivo
# MDA-MB-231 [9] = experiment: Antitumor activity against human MDA-MB-231 cells xenografted in BALB/c mouse assessed as inhibition in lung metastasis at 75 mg/kg, ip treated for 28 days by H and E staining based assay; assay type: functional, organism-based; details: time 28.0 day
# CAL-51 = experiment: Antimigratory activity against human CAL-51 cells assessed as inhibition in cell migration at 30 uM incubated for 16 hrs by crystal violet staining microscopy based transwell migration assay; assay type: functional
# [10] = Toxicity in BALB/c mouse xenografted with human HT-29 cells assessed as change in body weight at 50 mg/kg/day, ip for 3 weeks and measured every 3 days; assay type: organism-based; details: in vivo, 504 h
# MDA-MB-231 [11] = experiment: Antimetastatic activity against human MDA-MB-231 cells xenografted in BALB/c mouse assessed as decrease in plasma S1P levels at 75 mg/kg, ip for 28 days; assay type: functional, organism-based; details: time 28.0 day
# MDA-MB-231 [12] = experiment: Antimetastatic activity against human MDA-MB-231 cells […] assessed as upregulation of phosphorylated beta-catenin at 30 uM incubated for 2 to 12 hrs by western blot analysis; assay type: functional, cell-based; details: time 2-12 hrs
# [13] = AUClast in mouse at 50 mg/kg, ip; assay type: ADME, organism-based; design: time 0 - last, dose 50 mg/kg, route ip; details: in vivo
# HT-29 [14] = experiment: Induction of apoptosis in human HT-29 cells at 30 uM incubated for 48 hrs by Annexin V-FITC/PI staining based flow cytometry relative to control; assay type: functional
# MDA-MB-231 [15] = experiment: Antimigratory activity against human MDA-MB-231 cells assessed as reduction in cell migration at 20 uM incubated for 8 hrs by crystal violet staining microscopy based transwell migration assay; assay type: functional
# [16] = AUClast in mouse at 2 mg/kg, iv; assay type: ADME, organism-based; design: time 0 - last, dose 2 mg/kg, route iv; details: in vivo
# [17] = Cmax in mouse at 50 mg/kg, ip; assay type: ADME, organism-based; design: dose 50 mg/kg, route ip; details: in vivo
# MDA-MB-231 [18] = experiment: Antimetastatic activity against human MDA-MB-231 cells […] assessed as inhibition of FSCN1 phosphorylation at 30 uM incubated for 2 to 12 hrs by western blot analysis; assay type: functional, cell-based; details: time 2-12 hrs
# [19] = Toxicity in BALB/c mouse xenografted with human MDA-MB-231 cells assessed as body weight change at 50 to 75 mg/kg, ip administrated for 28 days; assay type: organism-based; details: in vivo, 672 h, dose 50-75 mg/kg, time 28 day
# [20] = Half life in mouse at 50 mg/kg, po; assay type: ADME, organism-based; details: in vivo
# MDA-MB-231 [21] = experiment: Antimetastatic activity against human MDA-MB-231 cells […] assessed as inhibition of NF-kappaB p65 phosphorylation at 30 uM incubated for 2 to 12 hrs by Western blot analysis; assay type: functional, cell-based; details: time 2-12 hrs
# MDA-MB-231 [22] = experiment: Induction of apoptosis in human MDA-MB-231 cells assessed as early apoptotic cells at 30 uM incubated for 48 hrs by Annexin V-FITC/PI staining based flow cytometry (reference value: 2.35 %); assay type: functional
# MDA-MB-231 [23] = experiment: Antimetastatic activity against human MDA-MB-231 cells […] assessed as downregulation of MMP-9 at 30 uM incubated for 2 to 12 hrs by western blot analysis; assay type: functional, cell-based; details: time 2-12 hrs
# [24] = Tmax in mouse at 50 mg/kg, po; assay type: ADME, organism-based; details: in vivo
# HT-29 [25] = experiment: Induction of cell cycle arrest at G0/G1 phase in human HT-29 cells assessed as decrease in p-Rb expression at 10 to 30 uM incubated for 24 hrs by Western blot analysis; assay type: functional, cell-based; details: dose 10-30 µM
# [26] = Cmax in mouse at 50 mg/kg, po; assay type: ADME, organism-based; design: dose 50 mg/kg, route po; details: in vivo
# MDA-MB-231 [27] = experiment: Induction of apoptosis in human MDA-MB-231 cells assessed as late apoptotic cells at 10 uM incubated for 48 hrs by Annexin V-FITC/PI staining based flow cytometry (reference value: 1.96 %); assay type: functional
# MDA-MB-231 [28] = experiment: Induction of cell cycle arrest at G0/G1 phase in human MDA-MB-231 cells at 20 uM incubated for 24 hrs by PI staining based flow cytometry; assay type: functional
# [29] = Tmax in mouse at 50 mg/kg, ip; assay type: ADME, organism-based; details: in vivo
# HT-29 [30] = experiment: Induction of cell cycle arrest at G0/G1 phase in human HT-29 cells assessed as reduction in cyclinE1 expression at 10 to 30 uM incubated for 24 hrs by Western blot analysis; assay type: functional, cell-based; details: dose 10-30 µM
# MDA-MB-231 [31] = experiment: Induction of apoptosis in human MDA-MB-231 cells assessed as late apoptotic cells at 30 uM incubated for 48 hrs by Annexin V-FITC/PI staining based flow cytometry (reference value: 1.96 %); assay type: functional
# HT-29 [32] = experiment: Induction of cell cycle arrest in human HT-29 cells assessed as accumulation at G0/G1 phase at 10 uM incubated for 24 hrs by PI staining based flow cytometry; assay type: functional
# MDA-MB-231 [33] = experiment: Induction of apoptosis in human MDA-MB-231 cells assessed as necrotic cells at 10 uM incubated for 48 hrs by Annexin V-FITC/PI staining based flow cytometry (reference value: 1.42 %); assay type: functional
# MDA-MB-231 [34] = experiment: Antitumor activity against human MDA-MB-231 cells xenografted in BALB/c mouse assessed as tumor growth inhibition at 100 mg/kg/day, ip for 3 weeks and measured every 3 days by caliper method; assay type: functional, organism-based
# MDA-MB-231 [35] = experiment: Antimetastatic activity against human MDA-MB-231 cells xenografted in BALB/c mouse assessed as decrease in plasma S1P levels at 50 mg/kg, ip for 28 days; assay type: functional, organism-based; details: time 28.0 day
# MDA-MB-231 [36] = experiment: Induction of apoptosis in human MDA-MB-231 cells assessed as early apoptotic cells at 10 uM incubated for 48 hrs by Annexin V-FITC/PI staining based flow cytometry (reference value: 2.35 %); assay type: functional
# HT-29 [37] = experiment: Induction of cell cycle arrest at G0/G1 phase in human HT-29 cells assessed as reduction in CDK6 expression at 10 to 30 uM incubated for 24 hrs by Western blot analysis; assay type: functional, cell-based; details: dose 10-30 µM
# HT-29 [38] = experiment: Induction of cell cycle arrest in human HT-29 cells assessed as accumulation at G0/G1 phase at 30 uM incubated for 24 hrs by PI staining based flow cytometry; assay type: functional
# [39] = Clearance in mouse at 2 mg/kg, iv; assay type: ADME, organism-based; details: in vivo
# HT-29 [40] = experiment: Induction of cell cycle arrest at G0/G1 phase in human HT-29 cells assessed as reduction in cyclinA expression at 10 to 30 uM incubated for 24 hrs by Western blot analysis; assay type: functional, cell-based; details: dose 10-30 µM
# MDA-MB-231 [41] = experiment: Induction of apoptosis in human MDA-MB-231 cells assessed as viable cells at 10 uM incubated for 48 hrs by Annexin V-FITC/PI staining based flow cytometry (reference value: 94.3 %); assay type: functional; details: read-out: Activity
# [42] = Half life in mouse at 50 mg/kg, ip; assay type: ADME, organism-based; details: in vivo
# HT-29 [43] = experiment: Antitumor activity against human HT-29 cells xenografted in BALB/c mouse assessed as tumor growth inhibition at 50 mg/kg/day, ip for 3 weeks and measured every 3 days by caliper method; assay type: functional, organism-based
# HT-29 [44] = experiment: Induction of apoptosis in human HT-29 cells assessed as increase in PARP cleavage at 30 uM measured after 48 hrs by western blot analysis; assay type: functional, cell-based
# [45] = AUClast in mouse at 50 mg/kg, po; assay type: ADME, organism-based; design: time 0 - last, dose 50 mg/kg, route po; details: in vivo
# HT-29 [46] = experiment: Induction of cell cycle arrest at G1 phase in human HT-29 cells assessed as increase in P21 expression at 30 uM incubated for 24 hrs by Western blot analysis; assay type: functional, cell-based
# HT-29 [47] = experiment: Induction of apoptosis in human HT-29 cells assessed as increase in caspase 3 cleavage at 30 uM measured after 48 hrs by western blot analysis; assay type: functional, cell-based
smiles,measurement,setting,value
Cc1cc(OCc2ccc(CN3CCC[C@@H]3CO)cc2)cc(CS(=O)(=O)c2ccccc2)c1Br,Activity,MDA-MB-231 [1],6.82%
same,bioavailability,[2],79%
same,half-life,[3],2.23 h
same,Activity,HT-29 [4],Active
same,Activity,MDA-MB-231 [5],Active
same,viability at 30 µM,MDA-MB-231 [6],36.4%
same,Activity,HT-29 [7],Active
same,bioavailability,[8],2.38%
same,Activity,MDA-MB-231 [9],Active
same,Activity,CAL-51,Active
same,Activity,[10],Non-Toxic
same,Activity,MDA-MB-231 [11],Active
same,Activity,MDA-MB-231 [12],Active
same,AUC(0-t),[13],8060 ng·h/mL
same,Activity,HT-29 [14],50%
same,Activity,MDA-MB-231 [15],Active
same,AUC(0-t),[16],408 ng·h/mL
same,Cmax,[17],7860 ng/mL
same,Activity,MDA-MB-231 [18],Active
same,Activity,[19],Non-Toxic
same,half-life,[20],8.13 h
same,Activity,MDA-MB-231 [21],Active
same,Activity,MDA-MB-231 [22],32.2%
same,Activity,MDA-MB-231 [23],Active
same,Tmax,[24],0.83 h
same,Activity,HT-29 [25],Active
same,Cmax,[26],171 ng/mL
same,Activity,MDA-MB-231 [27],9.16%
same,Activity,MDA-MB-231 [28],Active
same,Tmax,[29],0.18 h
same,Activity,HT-29 [30],Active
same,Activity,MDA-MB-231 [31],24.5%
same,Activity,HT-29 [32],Active
same,Activity,MDA-MB-231 [33],3.69%
same,Activity,MDA-MB-231 [34],Active
same,Activity,MDA-MB-231 [35],Active
same,Activity,MDA-MB-231 [36],3.67%
same,Activity,HT-29 [37],Active
same,Activity,HT-29 [38],Active
same,clearance,[39],81.1 mL/min/kg
same,Activity,HT-29 [40],Active
same,viability at 10 µM,MDA-MB-231 [41],65.4%
same,half-life,[42],4.2 h
same,Activity,HT-29 [43],Active
same,Activity,HT-29 [44],Active
same,AUC(0-t),[45],242 ng·h/mL
same,Activity,HT-29 [46],Active
same,Activity,HT-29 [47],Active
